Results published in Sander's compilation of Henry's law constants (doi:10.1021/es00099a010).

Test: Henry solubility constant Hcp at 298.15 K (mol/(m3 Pa))
Details: reference: Atlas et al. (1982)

| Structure (SMILES) | Henry solubility constant Hcp |
| --- | --- |
| ClC(Cl)=C(c1ccc(Cl)cc1)c1ccc(Cl)cc1 [1,1-dichloro-2,2-bis-(4-chlorophenyl)-ethene] | 0.0081 |
| Clc1ccc(Cl)c(-c2cccc(Cl)c2Cl)c1 [2,2',3,5'-tetrachlorobiphenyl] | 0.013 |
| Clc1ccccc1-c1cccc(Cl)c1Cl [2,2',3-trichlorobiphenyl] | 0.012 |
| Clc1cc(Cl)c(-c2ccccc2Cl)c(Cl)c1 [2,2',4,6-tetrachlorobiphenyl] | 0.013 |
| Clc1ccc(Cl)c(-c2cc(Cl)ccc2Cl)c1 [2,2',5,5'-tetrachlorobiphenyl] | 0.011 |
| Clc1ccc(Cl)c(-c2ccccc2Cl)c1 [2,2',5-trichlorobiphenyl] | 0.0099 |
| Clc1cccc(-c2cccc(Cl)c2Cl)c1 [2,3,3'-trichlorobiphenyl] | 0.012 |
| Clc1ccc(-c2ccc(Cl)c(Cl)c2Cl)cc1 [2,3,4,4'-tetrachlorobiphenyl] | 0.012 |
| Clc1ccc(-c2cc(Cl)ccc2Cl)cc1 [2,4',5-trichlorobiphenyl] | 0.011 |
| Clc1ccc(-c2ccccc2Cl)cc1 [2,4'-dichlorobiphenyl] | 0.01 |
| Clc1ccc(-c2ccc(Cl)c(Cl)c2)cc1 [3,4,4'-trichlorobiphenyl] | 0.012 |
| ClC1=C(Cl)[C@]2(Cl)[C@@H]3[C@@H](Cl)[C@@H](Cl)C[C@@H]3[C@@]1(Cl)C2(Cl)Cl [cis-chlordane] | 0.011 |
| ClC1=C(Cl)[C@]2(Cl)[C@H]3[C@H](Cl)[C@@H](Cl)C[C@H]3[C@@]1(Cl)C2(Cl)Cl [trans-chlordane] | 0.0074 |
| ClC1C(Cl)C(Cl)C(Cl)C(Cl)C1Cl (stereo not drawn) [α-1,2,3,4,5,6-hexachlorocyclohexane] | 0.42 |
